The results in this text go back to BindingDB's records for doi:10.1111/j.1747-0285.2009.00860.x (National University of Singapore, 2009).

Bounds are passed on as bounds.

The assay deals with T1, Dihydrofolate reductase (Bos taurus, UniProt P00376).
T1 sequence (P00376 whole entry): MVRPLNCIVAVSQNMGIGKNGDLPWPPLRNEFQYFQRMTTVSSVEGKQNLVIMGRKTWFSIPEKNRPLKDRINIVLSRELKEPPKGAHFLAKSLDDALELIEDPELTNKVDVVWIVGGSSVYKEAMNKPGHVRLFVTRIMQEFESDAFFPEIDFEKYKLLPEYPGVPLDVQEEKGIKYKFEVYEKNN
Nature of the assay: Inhibition Assay. From the text:
Inhibition activity using bovine dihydrofolate reductase (DHFR).

By IC50 is commonly meant the point on the concentration scale where inhibition reaches its midpoint. `CN(CCCON1C(N)=NC(N)=NC12CCCC2)c1ccccc1` [6,8,10-Traiazaspiro[4.5]deca-6,8-diene-7,9-diamine, If] displayed an IC50 of 14.9 nM. Then `NC1=NC2(CCCCC2)N(OCc2ccccc2)C(N)=N1` [1,3,5-Triazaspiro[5.5]undeca-1,3-diene-2,4-diamine, IIb], with 1790 nM; and `NC1=NC2(CCCCC2)N(OCCCOc2ccccc2)C(N)=N1`, with 6.9 nM; and `NC1=NC2(CCCC2)N(OCCc2ccccc2)C(N)=N1` [6,8,10-Traiazaspiro[4.5]deca-6,8-diene-7,9-diamine, Ic], with 31 nM. `NC1=NC2(CCCCC2)N(OCCc2ccccc2)C(N)=N1` [1,3,5-Triazaspiro[5.5]undeca-1,3-diene-2,4-diamine, IIc] registered an IC50 of 9.4 nM. Regarding `NC1=NC2(CCCC2)N(OCCCOc2ccccc2)C(N)=N1`, the IC50 stood at 2.3 nM. Then `NC1=NC2(CCCC2)N(OCCCc2ccccc2)C(N)=N1` [6,8,10-Traiazaspiro[4.5]deca-6,8-diene-7,9-diamine, Id], with 20.1 nM. As for `NC1=NC2(CCCC2)N(Cc2ccccc2)C(N)=N1` [6,8,10-Traiazaspiro[4.5]deca-6,8-diene-7,9-diamine, Ia], the IC50 was > 50000 nM.

As for `NC1=NC2(CCCCC2)N(OCCCc2ccccc2)C(N)=N1` [1,3,5-Triazaspiro[5.5]undeca-1,3-diene-2,4-diamine, IId], the IC50 turned out to be 31.9 nM. As for `NC1=NC2(CCCCC2)N(Cc2ccccc2)C(N)=N1` [1,3,5-Triazaspiro[5.5]undeca-1,3-diene-2,4-diamine, IIa], the IC50 is > 50000 nM.

`NC1=NC2(CCCC2)N(OCCCCOc2ccccc2)C(N)=N1` [6,8,10-Traiazaspiro[4.5]deca-6,8-diene-7,9-diamine, Ig] displayed an IC50 of 42.2 nM.

`NC1=NC2(CCCCC2)N(OCCCCOc2ccccc2)C(N)=N1` [1,3,5-Triazaspiro[5.5]undeca-1,3-diene-2,4-diamine, IIg] showed an IC50 of 155 nM.

Turning to `CN(CCCON1C(N)=NC(N)=NC12CCCCC2)c1ccccc1` [1,3,5-Triazaspiro[5.5]undeca-1,3-diene-2,4-diamine, IIf], 41.4 nM corresponded to half-maximal inhibition (IC50).
